Measurements published in US7262220B2, “Urea- and urethane-substituted acylureas, process for their preparation and their use” (Sanofi-Aventis Deutschland GmbH, priority 2002, dated 2007).
Read-outs that look alike come from different tables or passages of the source.

Target: T1, human glycogen phosphorylase a (Homo sapiens, UniProt P06737)
T1 sequence (P06737 1-847): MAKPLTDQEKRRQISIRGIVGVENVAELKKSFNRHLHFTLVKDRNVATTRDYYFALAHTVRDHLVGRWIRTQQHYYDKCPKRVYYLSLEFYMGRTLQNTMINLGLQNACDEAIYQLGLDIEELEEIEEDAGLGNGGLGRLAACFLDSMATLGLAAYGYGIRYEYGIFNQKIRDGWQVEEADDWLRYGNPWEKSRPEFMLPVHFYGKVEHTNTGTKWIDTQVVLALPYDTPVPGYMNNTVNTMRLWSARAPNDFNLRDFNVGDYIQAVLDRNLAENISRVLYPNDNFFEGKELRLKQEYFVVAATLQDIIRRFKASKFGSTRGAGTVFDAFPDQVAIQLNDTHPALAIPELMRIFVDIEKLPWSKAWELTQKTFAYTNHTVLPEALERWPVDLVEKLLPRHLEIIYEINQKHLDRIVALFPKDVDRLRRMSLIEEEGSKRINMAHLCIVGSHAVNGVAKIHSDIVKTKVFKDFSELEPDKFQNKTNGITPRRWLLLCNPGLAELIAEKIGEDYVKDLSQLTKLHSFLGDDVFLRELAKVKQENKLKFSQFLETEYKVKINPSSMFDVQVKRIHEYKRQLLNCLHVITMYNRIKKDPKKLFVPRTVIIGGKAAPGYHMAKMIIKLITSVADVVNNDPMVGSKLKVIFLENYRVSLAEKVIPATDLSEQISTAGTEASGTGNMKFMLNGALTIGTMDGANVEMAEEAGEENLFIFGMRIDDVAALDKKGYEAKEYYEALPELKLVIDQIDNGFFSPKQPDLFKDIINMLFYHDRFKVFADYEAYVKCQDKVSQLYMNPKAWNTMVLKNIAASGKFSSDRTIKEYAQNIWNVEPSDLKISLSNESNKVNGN
Experiment: Glycogen phosphorylase a activity assay
Assay type: biochemical
Details: read-out: % inhibition at 10 μM
Experimental: Glycogen Phosphorylase a Activity Assay
The effect of compounds on the activity of the active form of glycogen phosphorylase (GPa) was measured in the reverse direction by following the synthesis of glycogen from glucose 1-phosphate by determining the liberation of inorganic phosphate. All the reactions were carried out as duplicate determinations in microtiter plates with 96 wells (Half Area Plates, Costar No 3696), measuring the change in absorption owing to the formation of the reaction product at the wavelength specified hereinafter in a Multiskan Ascent Elisa Reader (Lab Systems, Finland). In order to measure the GPa enzymic activity in the reverse direction, the general method of Engers et al. (Engers H D, Shechosky S, Madsen N B, Can J Biochem 1970 July; 48(7):746-754) was used to measure the conversion of glucose 1-phosphate into glycogen and inorganic phosphate, with the following modifications: human glycogen phosphorylase a (for example with 0.76 mg of protein/ml (Aventis Pharma Deutschland GmbH), dissolved in buffer solution E (25 mM β-glycerophosphate, pH 7.0, 1 mM EDTA and 1 mM dithiothreitol) was diluted with buffer T (50 mM hepes, pH 7.0, 100 mM KCl, 2.5 mM EDTA, 2.5 mM MgCl26H2O) and addition of 5 mg/ml glycogen to a concentration of 10 μg of protein/ml. […] The baseline glycogen phosphorylase a activity in the absence of test substance was determined by adding 10 μl of buffer solution T (0.1% DMSO). The mixture was incubated at room temperature for 40 minutes, and the liberated […] was measured by the general method of Drueckes et al. (Drueckes P, Schinzel R, Palm D, Anal Biochem 1995 Sep. 1; 230(1):173-177) with the following modifications: 50 μl of a stop solution of 7.3 mM ammonium molybdate, 10.9 mM zinc acetate, 3.6% ascorbic acid, 0.9% SDS are added to 50 μl of the enzyme mixture. After incubation at 45° C. for 60 minutes, the absorption at 820 nm was measured. […]

[1] = 10 μM test substance, GPa activity measured in the reverse direction (liberation of inorganic phosphate), duplicate determinations

| Compound | inhibition at 10 µM [1] [%] | inhibition at 10 µM [%] |
| --- | --- | --- |
| COc1cc2c(=O)[nH]c(=O)[nH]c2cc1NC(=O)NC(=O)c1cc(F)c(F)cc1Cl [Example 132, 1-(2-Chloro-4,5-difluorobenzoyl)-3-(6-methoxy-2,4-dioxo-1,2,3,4-tetrahydro-quinazolin-7-yl)urea] | 97 |  |
| COC(=O)Nc1ccc(C(=O)O)cc1NC(=O)NC(=O)c1ccc(F)cc1Cl [Example 3, 3-[3-(2-Chloro-4-fluorobenzoyl)ureido]-4-methoxycarbonylaminobenzoic acid] | 53 |  |
| COC(=O)/C=C/c1ccc(NC(=O)Oc2ccc(Cl)cc2)cc1NC(=O)NC(=O)c1cc(F)c(F)cc1Cl [Example 110, Methyl (E)-3-[2-[3-(2-chloro-4,5-difluorobenzoyl)ureido]-4-(4-chloro-phenoxycarbonylamino)phenyl]acrylate] |  | 73 |
